Consider 26 compounds from patent US5245034A, “Compound having vessel smooth muscle relaxation activity” (Hidaka; Kiroyoshi, priority 1988, dated 1993).

In assay [1] the test system is superior mesenteric artery (contracted by potassium chloride). The assay can be described thus: Vessel Smooth Muscle Relaxation Action (V.R.). The conditions noted are these: Oryctolagus cuniculus; concentration relaxing KCl-contracted strain to 50%; cumulative administration; read-out: V.R. (ED50). The format is cell-based, rabbit. The text has this: The specimen was suspended by loading a strain in Krebs-Henseleit solution through which an oxygen gas containing 5% carbon dioxide was bubbled. The specimen was contracted by adding potassium chloride to maintain a predetermined strain. Thereafter, a test compound was cumulatively administrated.

Assay [2] deals with Calmodulin-Dependent Phosphodiesterase (Ca^2+ PDE). The assay is described as follows: Calmodulin-Dependent Phosphodiesterase Inhibition (Ca^2+ PDE). It counts as biochemical, rat. The conditions noted are these: [^3 H]-cGMP, 30° C. As for the experimental part:
Phosphodiesterase (Ca^2+ PDE)Ca^2+ PDE was partially purified from the brain of rat by DEAE-Sepharose column chromatography.
Calmodulin was purified from the calf brain using a calmodulin inhibitor W-7 affinity column.
A reaction mixture contained 20 μl of 500 mM Tris-HCl (pH 8.0), 20 μl of 50 mM MgCl2, 20 μl of 2 mM CaCl2 (or 10 mM EGTA), 20 μl of 1 mg/ml bovine serum albumin, PDE, […] of calmodulin, test sample and distilled water to make total volume 200 μl. To the mixture was added 20 μl of 4 μM [^3 H]-cGMP (2.5 μCi/ml), the mixture was incubated at 30° C. for 15 minutes, and then heated in boiling water for 3 to 5 minutes to terminate the reaction, and cooled in ice-water bath. 20 μg of 5'-nucleotidase (Snake venum) was added to the mixture, and the mixture was again incubated at 30° C. for 10 minutes. After addition of about 2 ml of water, the sample was applied to a cation exchange resin column (Biorad AG.AG50W-X4 to adsorbe the [^3 H]-guanosine and additionally about 2 ml of washing water for the sample was added to the column. The column was washed with about 20 ml of water, and the adsorbed [^3 H]-guanosine was eluted with 3 ml of 3N NH4 OH, and the elute was directly received by a vial. After an addition of 10 ml of an emulsified scintillation solution (ACS-II, AMERSHAM) the radio activity was measured by a scintillation counter LS7500 (Beckmann). The enzyme activity in the presence of calmodulin was taken as […], and a concentration of a test compound in μM which provides a 50% inhibition was expressed as IC50.

For the compound `CN(C(Cc1cnc[nH]1)CN1CCN(c2ccccc2)CC1)S(=O)(=O)c1cccc2cnccc12` (stereo not drawn) [Example 4, N-[1-(Imidazol-4(5)-Yl-Methyl)-2-(4 -Phenylpiperazinyl)Ethyl]-N-Methyl-5-Isoquinoline Sulfonamide], in assay [1], the EC50 amounted to 12 µM. The same compound showed an IC50 in assay [2] of 53 µM.

On to `CN(C(Cc1ccc(N)cc1)C(=O)N1CCN(c2ccccc2)CC1)S(=O)(=O)c1cccc2cnccc12` (stereo not drawn) [Example 13, 1-[P-Amino-N-(5-Isoquinolinesulfonyl)-N-Methylalanyl]-4-Phenylpiperazine], for which the EC50 in assay [1] was 1.2 µM. In addition, it took 15 µM to reach half-maximal inhibition in assay [2] (IC50).

As for `CN(C(Cc1ccc(NS(C)(=O)=O)cc1)C(=O)N1CCN(c2ccccc2)CC1)S(=O)(=O)c1cccc2cnccc12` (stereo not drawn) [Example 19, 1-[N-(5-Isoquinolinesulfonyl)-P-Methanesulfonylamino-N-Methylphenylalanyl]-4-Phenylpiperazine], the EC50 in assay [1] was 22 µM. This compound registered an IC50 in assay [2] of 20 µM.

Regarding `CN(C(Cc1ccc(NS(=O)(=O)c2cccc3ccccc23)cc1)C(=O)N1CCN(c2ccccc2)CC1)S(=O)(=O)c1cccc2cnccc12` (stereo not drawn) [Example 20, 1-[N-(5-isoquinolinesulfonyl)-N-methyl-p-(1-naphtharenesulfonylamino)phenylalanyl]-4-phenylpiperazine], the EC50 in assay [1] worked out at 1 µM. In assay [2], this compound returned an IC50 of 23 µM.

For `CN(c1ccc(CC(C(=O)N2CCN(c3ccccc3)CC2)N(C)S(=O)(=O)c2cccc3cnccc23)cc1)S(=O)(=O)c1cccc2cnccc12` (stereo not drawn) [Example 23, 1-{N-(5-Isoquinolinesulfonyl)-P-[N'-(5-Isoquinolinesulfonyl)-N'-Methylamino]-N-Methylphenylalanyl}-4-Phenylpiperazine], in assay [1], the EC50 is 0.25 µM. In addition, in assay [2], it took 66 µM to reach half-maximal inhibition (IC50).

Regarding `CN(c1ccc(CC(C(=O)N2CCN(c3ccccc3)CC2)N(C)S(=O)(=O)c2cccc3cnccc23)cc1)S(C)(=O)=O` (stereo not drawn) [Example 24, 1-[N-(5-isoquinolinesulfonyl)-p-(N'-methanesulfonyl-N'-methylamino) N-methylphenylalanyl]-4-phenylpiperazine], the EC50 in assay [1] stood at 8.3 µM. In addition, in assay [2], the IC50 was found to be 63 µM.

Take `CN(c1ccc(CC(C(=O)N2CCN(c3ccccc3)CC2)N(C)S(=O)(=O)c2cccc3cnccc23)cc1)S(=O)(=O)c1cccc2ccccc12` (stereo not drawn) [Example 25, 1-{N-(5-isoquinolinesulfonyl)-N-methyl-p-[N'-methyl-N'-(1-naphtharenesulfonyl)amino]phenylalanyl}-4-phenylpiperazine]: in assay [1], the EC50 came to 0.55 µM. Besides, the IC50 in assay [2] amounted to 70 µM.

Take `CN(C(Cc1ccc(O)cc1)CN1CCN(c2ccccc2)CC1)S(=O)(=O)c1cccc2cnccc12` (stereo not drawn) [Example 36, N-[1-(P-Hydroxybenzyl)-2-(4-Phenylpiperazinyl)Ethyl]-N-Methyl-5-Isoquinolinesulfonamide]: in assay [1], the EC50 was 0.81 µM. Moreover, in assay [2], the IC50 was found to be 10.5 µM.

In the case of `O=S(=O)(NC(Cc1ccc(OS(=O)(=O)c2cccc3cnccc23)cc1)CN1CCN(c2ccc(F)cc2)CC1)c1cccc2cnccc12` (stereo not drawn) [Example 48], the EC50 in assay [1] amounted to 3.9 µM. In assay [2], this compound registered an IC50 of 6.5 µM.

`CN(C(Cc1ccc(OS(=O)(=O)c2cccc3ccccc23)cc1)CN1CCN(c2ccccc2)CC1)S(=O)(=O)c1cccc2ccccc12` (stereo not drawn) [Example 57, N-methyl-N-{1-[p-(α-naphtharenesulfonyloxy) -benzyl]-2-(4-phenylpiperazinyl)ethyl}-α-naphtharenesulfonamide]: the EC50 in assay [1] worked out at 0.75 µM. In addition, in assay [2], the IC50 was determined as 50 µM.

For `CN(C(Cc1ccc(O)cc1)CN1CCN(c2ccccc2)CC1)S(=O)(=O)c1cccc2ccccc12` (stereo not drawn) [Example 58, N-[1-(p-hydroxybenzyl)-2-(4-phenylpiperazinyl)ethyl]-N-methyl-α-naphtharenesulfonamide], in assay [1], the EC50 is 0.25 µM. In assay [2], this compound yielded an IC50 of 63 µM.

Take `O=S(=O)(NC(Cc1ccc(OS(=O)(=O)c2cccc3cnccc23)cc1)CN1CCCN(c2ccccc2)CC1)c1cccc2cnccc12` (stereo not drawn) [Example 80]: the EC50 in assay [1] was determined as 2.4 µM. Moreover, in assay [2], the IC50 turned out to be 13 µM.

Regarding `O=S(=O)(NC(Cc1ccc(O)cc1)CN1CCCN(c2ccccc2)CC1)c1cccc2cnccc12` (stereo not drawn) [Example 82, N-[1-(P-Hydroxybenzyl)-2-(4-Phenylhomopiperazinyl)Ethyl]-5-Isoquinolinesulfonamide], in assay [1], the EC50 was 0.86 µM. The IC50 in assay [2] came to 33 µM.

Regarding `CN(C(Cc1ccc(O)cc1)CN1CCCN(c2ccccc2)CC1)S(=O)(=O)c1cccc2cnccc12` (stereo not drawn) [Example 83, N-[1-(P-Hydroxybenzyl)-2-(4-Phenylhomopiperazinyl)Ethyl]-N-Methyl-5-Isoquinolinesulfonamide], in assay [1], the EC50 turned out to be 0.39 µM. Moreover, the IC50 in assay [2] came to 24 µM.

Take `O=S(=O)(NC(Cc1ccc(OS(=O)(=O)c2cccc3cnccc23)cc1)CN1CCC(OCc2ccc(Cl)c(Cl)c2)CC1)c1cccc2cnccc12` (stereo not drawn) [Example 86]: the EC50 in assay [1] came out at 13 µM. For the same compound, the half-maximal inhibitory concentration (IC50) in assay [2] was found to be 24 µM.

With `O=S(=O)(NC(Cc1ccc(O)cc1)CN1CCC(OCc2ccc(Cl)c(Cl)c2)CC1)c1cccc2cnccc12` (stereo not drawn) [Example 87, N-{1-(p-hydroxybenzyl)-2-[4-(3,4-dichlorobenzyloxy)piperidino]ethyl}-5-isoquinolinesulfonamide], in assay [1], the EC50 was found to be 1.7 µM. In assay [2], this compound displayed an IC50 of 1.9 µM.

Regarding `O=S(=O)(NC(Cc1ccc(OCc2ccccc2)cc1)CN1CCN(c2ccccc2)CC1)c1cccc2cnccc12` (stereo not drawn) [Example 88, N-{1-[(4-benzyloxy)benzyl]-2-(4-phenylpiperazinyl)ethyl}-5-isoquinolinesulfonamide], the EC50 in assay [1] was determined as 4.3 µM. The same compound displayed an IC50 in assay [2] of 14 µM.

Regarding `CN(C(Cc1ccc(O)cc1)CN1CCC(OCc2ccc(Cl)c(Cl)c2)CC1)S(=O)(=O)c1cccc2cnccc12` (stereo not drawn) [Example 90, N-{2-[4-(3,4-Dichlorobenzyloxy)Piperidino]-1-(P-Hydroxybenzyl)Ethyl}-N-Methyl-5-Isoquinolinesulfonamide], the EC50 in assay [1] was determined as 0.33 µM. This compound showed an IC50 in assay [2] of 3.4 µM.

Consider `COc1ccc(CC(CN2CCC(OCc3ccc(Cl)c(Cl)c3)CC2)N(C)S(=O)(=O)c2cccc3cnccc23)cc1` (stereo not drawn) [Example 91, N-{2-[4-(3,4-Dichlorobenzyloxy)Piperidine]-1-(P-Methoxybenzyl)Ethyl}-N-Methyl-5-Isoquinolinesulfonamide], for which the EC50 in assay [1] worked out at 1.1 µM. This compound also showed an IC50 in assay [2] of 10 µM.

Take `CN(C(Cc1ccc(O)cc1)CN1CCC(c2ccccc2)CC1)S(=O)(=O)c1cccc2cnccc12` (stereo not drawn) [Example 93, N-[1-(p-hydroxybenzyl)-2-(4-phenylpiperidino)ethyl]-N-methyl-5-isoquinolinesulfonamide]: the EC50 in assay [1] came to 0.31 µM. In addition, in assay [2], the IC50 amounted to 3.4 µM.

`CN(C(Cc1ccc(OS(=O)(=O)c2cccc3cnccc23)cc1)CN1CCC(O)CC1)S(=O)(=O)c1cccc2cnccc12` (stereo not drawn) [Example 99, N-{2-(4-Hydroxypiperidino)-1-[P-(5-Isoquinolinesulfonyloxy)Benzyl]Ethyl}-N-Methyl-5-Isoquinolinesulfonamide]: in assay [1], the EC50 was found to be 2.8 µM. The IC50 in assay [2] came out at 61 µM.

In the case of `O=S(=O)(c1cccc2cnccc12)N(Cc1ccc(Cl)c(Cl)c1)C(Cc1ccc(O)cc1)CN1CCC(O)CC1` (stereo not drawn) [Example 105, N-3,4-Dichlorobenzyl-N-[1-(P-Hydroxybenzyl)-2-(4-Hydroxypiperidino)Ethyl]-5-Isoquinolinesulfonamide], in assay [1], the EC50 stood at 5.4 µM. In addition, the IC50 in assay [2] was 12 µM.

In the case of `Cc1ccc(CN(C(Cc2ccc(O)cc2)CN2CCC(O)CC2)S(=O)(=O)c2cccc3cnccc23)cc1` (stereo not drawn) [Example 106, N-[1-(P-Hydroxybenzyl)-2-(4-Hydroxypiperidino)Ethyl]-N-P-Methylbenzyl-5-Isoquinolinesufonamide], in assay [1], the EC50 amounted to 8.9 µM. Further, in assay [2], the IC50 was found to be 28 µM.

For the compound `O=C([C@H](Cc1ccc(OS(=O)(=O)c2cccc3cnccc23)cc1)NS(=O)(=O)c1cccc2cnccc12)N1CCN(c2ccccc2)CC1` [Example 108, 1-[N,O-Bis(5-Isoquinolinesulfonyl)Tyrosyl]-4-Phenylpiperazine], in assay [1], the EC50 is 1.2 µM. The compound also yielded an IC50 in assay [2] of 10 µM.

As to `CN([C@@H](Cc1ccc(OS(=O)(=O)c2cccc3cnccc23)cc1)C(=O)N1CCN(c2ccccc2)CC1)S(=O)(=O)c1cccc2cnccc12` [Example 109, 1-[N,O-Bis(5-Isoquinolinesulfonyl)-N-Methyltyrosyl]-4-Phenylpiperazine], the EC50 in assay [1] was 0.59 µM. The compound further gave an IC50 in assay [2] of 1.3 µM.

In assay [2], `O=S(=O)(NCCN(CC=Cc1ccc(Cl)cc1)Cc1ccc(O)cc1)c1cccc2cnccc12` [Example 194, N-{2-[4-Chloro-N-(4-Hydroxybenzyl)Cinnamylamino]ethyl}-5-Isoquinolinesulfonamide] showed an IC50 of 80 µM.

In general, IC50 refers to the concentration needed to halve the response being measured.
